According to the NIST ThermoML archive (doi:10.1016/j.tca.2004.11.004):
Numbers after ± are expanded uncertainties.

How the values were obtained:
[1] = Molar enthalpy of transition or fusion; conditions: Crystal; DSC
[2] = Crystal; DTA

In the case of `CC(=O)[O-].[Na+]` [sodium ethanoate], the “Molar enthalpy of transition or fusion” value [1] is reported as 4.16 ± 0.0956 kcal/mol and the Normal melting temperature [2] is reported as 329.4 ± 0.4 °C.
In the case of `CC(=O)[O-].[Li+]` [lithium acetate], the “Molar enthalpy of transition or fusion” value [1] is reported as 3.01 ± 0.0956 kcal/mol and the Normal melting temperature [2] is reported as 283.5 ± 0.4 °C.
For `CC(=O)[O-].[Rb+]` [rubidium acetate], the “Molar enthalpy of transition or fusion” value [1] was 2.13 ± 0.191 kcal/mol and the Normal melting temperature [2] was 240.5 ± 0.4 °C.
In the case of `CC(=O)[O-].[Cs+]` [cesium acetate], the “Molar enthalpy of transition or fusion” value [1] is reported as 2.63 ± 0.0956 kcal/mol and the Normal melting temperature [2] is reported as 191.6 ± 0.4 °C.
For `CC(=O)[O-].[K+]` [potassium ethanoate], the “Molar enthalpy of transition or fusion” value [1] was 2.87 ± 0.0956 kcal/mol and the Normal melting temperature [2] was 305.2 ± 0.4 °C.
